Test results reported in patent US20230172915A1, “DHODH INHIBITOR FOR THE TREATMENT OF COVID-19” (priority 2020, published 2023).

Experiments:
[1] = molecular target: T1, DHODH (Homo sapiens, UniProt Q02127); experiment: Isolated mitochondria colorimetric assay of DHODH activity; assay type: biochemical; settings: 0.1, 1, 10, 100, 1000, or 1000 nM
T1 construct: from tissue; host or cells: isolated mitochondria / mitochondria extracts
Excerpt: FIG. 3 is a plot of % inhibition vs compound concentration in nM, illustrating the results of a colorimetric assay of inhibition of DHODH activity in vitro in mitochondria extracts by PTC299, brequinar, and teriflunomide, compared to the negative control, PTC-371.
The latter two compounds are known DHODH inhibitors.

[2] = tested on: HT1080 human fibrosarcoma cells; experiment: De novo pyrimidine nucleotide synthesis from 15N-glutamine in HT1080 cells; assay type: cell-based; settings: 100 nM
Excerpt: In this Example, fibrosarcoma cells were used to investigate the effect of PTC299 on pyrimidine nucleotide synthesis. Glutamine is an upstream precursor of dihydroorotic acid in the de novo pyrimidine synthesis pathway, as illustrated in FIG. 1.

[3] = tested on: SARS-CoV-2 USA-WA1/2020; experiment: PTC299 and remdesivir alone or combined, SARS-CoV-2 titer in Vero cells (TCID50); assay type: cell-based; settings: remdesivir 5 µM, 24 hours post infection

T1 sequence (Q02127 whole entry, species assumed): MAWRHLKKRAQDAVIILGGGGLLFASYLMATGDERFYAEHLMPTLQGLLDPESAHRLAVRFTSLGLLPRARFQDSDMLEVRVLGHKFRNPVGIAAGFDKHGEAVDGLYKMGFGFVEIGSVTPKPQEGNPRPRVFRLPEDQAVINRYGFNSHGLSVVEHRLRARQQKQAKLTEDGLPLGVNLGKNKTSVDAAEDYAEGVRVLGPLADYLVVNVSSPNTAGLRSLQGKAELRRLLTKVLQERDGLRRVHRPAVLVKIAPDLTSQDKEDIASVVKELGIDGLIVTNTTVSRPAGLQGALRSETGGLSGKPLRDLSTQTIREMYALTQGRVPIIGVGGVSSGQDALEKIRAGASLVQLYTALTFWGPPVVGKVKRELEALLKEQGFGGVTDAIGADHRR

| SMILES | inhibition of DHODH activity [1] | suppression of de novo pyrimidine nucleotide biosynthesis [2] | reduction in titer relative to untreated control [3] [%] |
| --- | --- | --- | --- |
| COc1ccc(C2c3[nH]c4ccc(Cl)cc4c3CCN2C(=O)Oc2ccc(Cl)cc2)cc1 (stereo not drawn) [PTC-371, reference compound] | no inhibition was observed | did not suppress de novo pyrimidine nucleotide biosynthesis |  |
| CCC(CC)COC(=O)[C@H](C)N[P@](=O)(OC[C@H]1O[C@@](C#N)(c2ccc3c(N)ncnn23)[C@H](O)[C@@H]1O)Oc1ccccc1 [Remdesivir, remdesivir, reference compound] |  |  | 86 |
